Values joined by “and” are separate entries in the source; they are usually repeats but may differ in a detail not shown here. Equal entries are not always repeated.
Tests used:
[1] = xn = mol fraction of the nth substance listed; settings: 298 K; 100 kPa; Crystal of intercomponent compound 1; X-ray diffraction; x2 = 0.501
[2] = specific heat capacity at constant pressure; xn = mol fraction of the nth substance listed; settings: 100 kPa, Crystal of intercomponent compound 1, x2 = 0.501

[Se] [selenium] + [Ga]
Settings	mass density [kg/m3]
[1]	4995

[2]
Settings	specific heat capacity
16.15 K, relaxation calorimetry	11.99 J/K/kg
16.17 K, relaxation calorimetry	12 J/K/kg
18.16 K, relaxation calorimetry	16.65 J/K/kg and 16.64 J/K/kg
18.18 K, relaxation calorimetry	16.69 J/K/kg
20.17 K, relaxation calorimetry	21.87 J/K/kg
20.18 K, relaxation calorimetry	21.87 J/K/kg
20.19 K, relaxation calorimetry	21.91 J/K/kg
22.2 K, relaxation calorimetry	27.43 J/K/kg and 27.5 J/K/kg
22.21 K, relaxation calorimetry	27.42 J/K/kg
24.22 K, relaxation calorimetry	33.32 J/K/kg and 33.29 J/K/kg
24.23 K, relaxation calorimetry	33.28 J/K/kg
26.23 K, relaxation calorimetry	39.37 J/K/kg and 39.38 J/K/kg
26.24 K, relaxation calorimetry	39.4 J/K/kg
28.25 K, relaxation calorimetry	45.37 J/K/kg and 45.38 J/K/kg and 45.39 J/K/kg
30.27 K, relaxation calorimetry	51.28 J/K/kg and 51.24 J/K/kg
30.28 K, relaxation calorimetry	51.39 J/K/kg
35.31 K, relaxation calorimetry	66.34 J/K/kg and 66.36 J/K/kg and 66.53 J/K/kg
40.35 K, relaxation calorimetry	80.84 J/K/kg and 80.98 J/K/kg and 81.11 J/K/kg
45.38 K, relaxation calorimetry	95.31 J/K/kg
45.39 K, relaxation calorimetry	94.97 J/K/kg
45.4 K, relaxation calorimetry	95.04 J/K/kg
50.4 K, relaxation calorimetry	109.56 J/K/kg
50.42 K, relaxation calorimetry	108.96 J/K/kg
50.44 K, relaxation calorimetry	108.89 J/K/kg
55.43 K, relaxation calorimetry	122.81 J/K/kg
55.45 K, relaxation calorimetry	122.01 J/K/kg
55.49 K, relaxation calorimetry	122.14 J/K/kg
60.46 K, relaxation calorimetry	135.73 J/K/kg
60.49 K, relaxation calorimetry	134.99 J/K/kg
60.52 K, relaxation calorimetry	134.92 J/K/kg
65.48 K, relaxation calorimetry	148.37 J/K/kg
65.53 K, relaxation calorimetry	147.43 J/K/kg
65.58 K, relaxation calorimetry	147.3 J/K/kg
70.5 K, relaxation calorimetry	160.95 J/K/kg
70.57 K, relaxation calorimetry	159.6 J/K/kg
70.63 K, relaxation calorimetry	159.47 J/K/kg
75.53 K, relaxation calorimetry	172.38 J/K/kg
75.61 K, relaxation calorimetry	170.97 J/K/kg
75.66 K, relaxation calorimetry	170.77 J/K/kg
80.55 K, relaxation calorimetry	184.09 J/K/kg
80.66 K, relaxation calorimetry	182.27 J/K/kg
80.7 K, relaxation calorimetry	182.34 J/K/kg
85.57 K, relaxation calorimetry	194.78 J/K/kg
85.7 K, relaxation calorimetry	192.56 J/K/kg
85.74 K, relaxation calorimetry	192.9 J/K/kg
90.59 K, relaxation calorimetry	204.73 J/K/kg
90.72 K, relaxation calorimetry	202.45 J/K/kg
90.78 K, relaxation calorimetry	202.18 J/K/kg
95.61 K, relaxation calorimetry	213.21 J/K/kg
95.73 K, relaxation calorimetry	211.33 J/K/kg
95.82 K, relaxation calorimetry	210.32 J/K/kg
100.79 K, relaxation calorimetry	218.86 J/K/kg and 218.59 J/K/kg
100.93 K, relaxation calorimetry	219.87 J/K/kg
105.73 K, relaxation calorimetry	227.87 J/K/kg
105.8 K, relaxation calorimetry	226.59 J/K/kg
105.86 K, relaxation calorimetry	225.85 J/K/kg
113.65 K, relaxation calorimetry	238.83 J/K/kg
113.74 K, relaxation calorimetry	237.36 J/K/kg
113.8 K, relaxation calorimetry	236.08 J/K/kg
121.58 K, relaxation calorimetry	248.59 J/K/kg
121.67 K, relaxation calorimetry	246.97 J/K/kg
121.74 K, relaxation calorimetry	245.83 J/K/kg
129.51 K, relaxation calorimetry	257.33 J/K/kg
129.61 K, relaxation calorimetry	255.45 J/K/kg
129.66 K, relaxation calorimetry	254.51 J/K/kg
137.44 K, relaxation calorimetry	264.59 J/K/kg
137.56 K, relaxation calorimetry	262.58 J/K/kg and 263.32 J/K/kg
145.45 K, relaxation calorimetry	269.91 J/K/kg
145.46 K, relaxation calorimetry	268.03 J/K/kg
145.47 K, relaxation calorimetry	269.1 J/K/kg
153.32 K, relaxation calorimetry	274.68 J/K/kg
153.34 K, relaxation calorimetry	275.63 J/K/kg
153.36 K, relaxation calorimetry	275.49 J/K/kg
161.23 K, relaxation calorimetry	282.15 J/K/kg
161.3 K, relaxation calorimetry	279.06 J/K/kg
161.31 K, relaxation calorimetry	280.6 J/K/kg
169.16 K, relaxation calorimetry	286.18 J/K/kg
169.22 K, relaxation calorimetry	285.24 J/K/kg and 284.23 J/K/kg
177.11 K, relaxation calorimetry	290.02 J/K/kg
177.12 K, relaxation calorimetry	289.62 J/K/kg and 289.08 J/K/kg
185.02 K, relaxation calorimetry	293.18 J/K/kg
185.03 K, relaxation calorimetry	293.58 J/K/kg
185.05 K, relaxation calorimetry	293.38 J/K/kg
192.93 K, relaxation calorimetry	296.41 J/K/kg
192.95 K, relaxation calorimetry	296.68 J/K/kg
192.96 K, relaxation calorimetry	296.81 J/K/kg
200.83 K, relaxation calorimetry	299.5 J/K/kg
200.86 K, relaxation calorimetry	299.77 J/K/kg
200.88 K, relaxation calorimetry	299.7 J/K/kg
208.74 K, relaxation calorimetry	302.93 J/K/kg
208.76 K, relaxation calorimetry	303 J/K/kg
208.8 K, relaxation calorimetry	302.6 J/K/kg
216.62 K, relaxation calorimetry	305.29 J/K/kg
216.66 K, relaxation calorimetry	304.88 J/K/kg
216.71 K, relaxation calorimetry	304.61 J/K/kg
224.53 K, relaxation calorimetry	308.38 J/K/kg
224.58 K, relaxation calorimetry	307.71 J/K/kg
224.64 K, relaxation calorimetry	307.17 J/K/kg
232.41 K, relaxation calorimetry	310.8 J/K/kg
232.48 K, relaxation calorimetry	309.86 J/K/kg
232.56 K, relaxation calorimetry	309.05 J/K/kg
240.31 K, relaxation calorimetry	311.88 J/K/kg
240.39 K, relaxation calorimetry	310.67 J/K/kg
240.46 K, relaxation calorimetry	310.2 J/K/kg
248.21 K, relaxation calorimetry	312.89 J/K/kg
248.3 K, relaxation calorimetry	312.15 J/K/kg
248.37 K, relaxation calorimetry	311.47 J/K/kg
256.11 K, relaxation calorimetry	314.1 J/K/kg
256.21 K, relaxation calorimetry	313.22 J/K/kg
256.27 K, relaxation calorimetry	312.68 J/K/kg
262.02 K, Extra sensitive DSC	315.04 J/K/kg
264.01 K, relaxation calorimetry	314.5 J/K/kg
264.11 K, relaxation calorimetry	313.9 J/K/kg
264.17 K, relaxation calorimetry	313.42 J/K/kg
265 K, Extra sensitive DSC	315.24 J/K/kg
270 K, Extra sensitive DSC	315.51 J/K/kg
271.91 K, relaxation calorimetry	315.31 J/K/kg
272.02 K, relaxation calorimetry	314.5 J/K/kg
272.07 K, relaxation calorimetry	314.3 J/K/kg
275 K, Extra sensitive DSC	316.52 J/K/kg
279.81 K, relaxation calorimetry	318.13 J/K/kg
279.92 K, relaxation calorimetry	317.12 J/K/kg
279.96 K, relaxation calorimetry	317.06 J/K/kg
280 K, Extra sensitive DSC	317.19 J/K/kg
285 K, Extra sensitive DSC	318.2 J/K/kg
290 K, Extra sensitive DSC	319.21 J/K/kg
295 K, Extra sensitive DSC	319.95 J/K/kg
299.68 K, Extra sensitive DSC	320.55 J/K/kg
307 K, Extra sensitive DSC	321.29 J/K/kg
310 K, Extra sensitive DSC	322.03 J/K/kg
315 K, Extra sensitive DSC	322.3 J/K/kg
320 K, Extra sensitive DSC	322.91 J/K/kg
325 K, Extra sensitive DSC	323.65 J/K/kg
330 K, Extra sensitive DSC	324.52 J/K/kg
335 K, Extra sensitive DSC	325.93 J/K/kg
340 K, Extra sensitive DSC	325.93 J/K/kg
345 K, Extra sensitive DSC	326.94 J/K/kg
350 K, Extra sensitive DSC	328.02 J/K/kg
354.61 K, Extra sensitive DSC	329.03 J/K/kg
358.6 K, Extra sensitive DSC	328.76 J/K/kg

From the NIST ThermoML archive (doi:10.1016/j.jct.2018.08.013)
